Experimental data published in patent US20260109732A1, “LIPID AMINES” (ModernaTX, Inc., priority 2021, published 2026).
Structures can show the parent of a compound that is named as a salt.

Legend:
HeLa cells [1] = experiment: Luciferase Protein Expression Assay in HeLa Cells; format: cell-based, Human; conditions: LNPs encapsulating Luciferase mRNA, 25 ng per well, N=4 wells; 5 h serum-free then 24 h; ONE-Glo
Summary of the method: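 HeLa cells received LNPs carrying luciferase mRNA (25 ng per well) or PBS in serum-free MEM for 5 h, then complete MEM for a further 24 h. Luciferase then read by ONE-Glo luminescence after lysis and reported as average RLU of 4 replicate wells.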

[2] = Encapsulation of mRNA nanoparticles with lipid amines using Ribogreen assay; format: physicochemical
Summary of the method: (§1)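 Ionizable lipid nanoparticles (IL1:DSPC:cholesterol:PEG-DMG-2K) formed by vortex mixing at pH 4, loaded with luciferase or CFTR mRNA at N:P 4.93, neutralized with TRIS pH 8.12, then modified with lipid amine SA50 at pH 7.5. Particle diameter and PDI read by DLS; mRNA encapsulation by Ribogreen assay.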

[3] = Diameter and PDI from DLS measurements of mRNA nanoparticles with lipid amines; format: physicochemical
Summary of the method: as §1

HeLa cells [4] = experiment: CFTR Protein Expression Assay in HeLa Cells; format: cell-based, Human; conditions: LNPs encapsulating CFTR mRNA, N=4 wells; 5 h serum-free then 24 h; immunofluorescence vs PBS control
Summary of the method: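 HeLa cells dosed with CFTR mRNA LNPs (70 mM NaCl final buffer matrix) in serum-free MEM for 5 h, then complete MEM for 24 h. Fixed cells immunostained with anti-CFTR monoclonal and Alexa 488 secondary, imaged confocally; CFTR intensity per cell expressed as fold-change versus PBS buffer control, N=4 wells.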

[5] = CFTR mRNA nanoparticle with lipid amine
[6] = Luciferase mRNA nanoparticle modified with lipid amine

SMILES	Average Relative Light Units ± Standard Deviation (HeLa cells [1]) [Relative Light Units]	% Encapsulation (Ribogreen) [2, 5] [%]	% Encapsulation (Ribogreen) [2, 6] [%]	Diameter (nm) [3, 5] [nm]	PDI [3, 5]	Diameter (nm) [3, 6] [nm]	PDI [3, 6]	Average fold-change in CFTR signal intensity per cell compared to buffer control ± standard deviation (HeLa cells [4]) [fold-change]
CC(C)CCC[C@@H](C)[C@H]1CC[C@H]2[C@@H]3CC=C4C[C@@H](OC(=O)N(CCCCCCCC(C)(C)N)CCC(C)(C)N)CC[C@]4(C)[C@H]3CC[C@]12C [SA152, (3S,8S,9S,10R,13R,14S,17R)-10,13-dimethyl-17-((R)-6-methylheptan-2-yl)-2,3,4,7,8,9,10,11,12,13,14,15,16,17-tetradecahydro-1H-cyclopenta[a]phenanthren-3-yl (3-amino-3-methylbutyl)(8-amino-8-methylnonyl)carbamate dihydrochloride]	41692.8 ± 9336.8	98.4	98.2	71.6	0.14	78	0.15	20.6 ± 1.6
CC[C@H](CC[C@@H](C)[C@H]1CC[C@H]2[C@@H]3CC=C4C[C@@H](OC(=O)N(CCCCCCCC(C)(C)N)CCC(C)(C)N)CC[C@]4(C)[C@H]3CC[C@]12C)C(C)C [SA153, (3S,8S,9S,10R,13R,14S,17R)-17-((2R,5R)-5-ethyl-6-methylheptan-2-yl)-10,13-dimethyl-2,3,4,7,8,9,10,11,12,13,14,15,16,17-tetradecahydro-1H-cyclopenta[a]phenanthren-3-yl (3-amino-3-methylbutyl)(8-amino-8-methylnonyl)carbamate dihydrochloride]	35859.3 ± 5894.9	98.5	95.8	69.3	0.12	72	0.15	17.5 ± 1.4
CC[C@H](CC[C@@H](C)[C@H]1CC[C@H]2[C@@H]3CC=C4C[C@@H](OC(=O)CCCC(=O)N(CCCCCCCC(C)N)CCC(C)N)CC[C@]4(C)[C@H]3CC[C@]12C)C(C)C (stereo partly drawn) [SA154, (3S,8S,9S,10R,13R,14S,17R)-17-((2R,5R)-5-ethyl-6-methylheptan-2-yl)-10,13-dimethyl-2,3,4,7,8,9,10,11,12,13,14,15,16,17-tetradecahydro-1H-cyclopenta[a]phenanthren-3-yl 5-((3-aminobutyl)(8-aminononyl)amino)-5-oxopentanoate dihydrochloride]	28128.6 ± 4655.3	99.1	99.6	72.8	0.13	73	0.18	16.7 ± 0.8
CC[C@H](CC[C@@H](C)[C@H]1CC[C@H]2[C@@H]3CC=C4C[C@@H](OC(=O)CCCC(=O)N(CCCCCCCC(C)(C)N)CCC(C)(C)N)CC[C@]4(C)[C@H]3CC[C@]12C)C(C)C [SA155, (3S,8S,9S,10R,13R,14S,17R)-17-((2R,5R)-5-ethyl-6-methylheptan-2-yl)-10,13-dimethyl-2,3,4,7,8,9,10,11,12,13,14,15,16,17-tetradecahydro-1H-cyclopenta[a]phenanthren-3-yl 5-((3-amino-3-methylbutyl)(8-amino-8-methylnonyl)amino)-5-oxopentanoate dihydrochloride]	31922.9 ± 8053.8	99.4	98.9	71.1	0.13	73	0.11	12.2 ± 1.0
CC[C@H](CC[C@@H](C)[C@H]1CC[C@H]2[C@@H]3CC=C4C[C@@H](OC(=O)CCCC(=O)N(CCC(C)N)CCC(C)N)CC[C@]4(C)[C@H]3CC[C@]12C)C(C)C (stereo partly drawn) [SA156, (3S,8S,9S,10R,13R,14S,17R)-17-((2R,5R)-5-ethyl-6-methylheptan-2-yl)-10,13-dimethyl-2,3,4,7,8,9,10,11,12,13,14,15,16,17-tetradecahydro-1H-cyclopenta[a]phenanthren-3-yl 5-(bis(3-aminobutyl)amino)-5-oxopentanoate dihydrochloride]	37662.9 ± 8258.6	99.6	99.5	76.5	0.18	74	0.15	14.6 ± 0.8
CC(C)CCC[C@@H](C)[C@H]1CC[C@H]2[C@@H]3CC=C4C[C@@H](OC(=O)N(CCCC(C)(C)N)CCC(C)(C)N)CC[C@]4(C)[C@H]3CC[C@]12C [SA157, (3S,8S,9S,10R,13R,14S,17R)-10,13-dimethyl-17-((R)-6-methylheptan-2-yl)-2,3,4,7,8,9,10,11,12,13,14,15,16,17-tetradecahydro-1H-cyclopenta[a]phenanthren-3-yl (3-amino-3-methylbutyl)(4-amino-4-methylpentyl)carbamate dihydrochloride]	24130.4 ± 4741.7	99.8	99.6	73.9	0.16	75	0.13	15.9 ± 1.4
CC(C)CCC[C@@H](C)[C@H]1CC[C@H]2[C@@H]3CC=C4C[C@@H](OC(=O)N(CCC(C)(C)N)CCC(C)(C)N)CC[C@]4(C)[C@H]3CC[C@]12C [SA158, (3S,8S,9S,10R,13R,14S,17R)-10,13-dimethyl-17-((R)-6-methylheptan-2-yl)-2,3,4,7,8,9,10,11,12,13,14,15,16,17-tetradecahydro-1H-cyclopenta[a]phenanthren-3-yl bis(3-amino-3-methylbutyl)carbamate dihydrochloride]	33097.8 ± 7405.1	98.3	99.7	72.4	0.15	79	0.28	20.4 ± 1.3
CC(C)CCC[C@@H](C)[C@H]1CC[C@H]2[C@@H]3CC=C4C[C@@H](OC(=O)CCC(=O)N(CCCCNCCC(C)N)CCC(C)N)CC[C@]4(C)[C@H]3CC[C@]12C (stereo partly drawn) [SA160, (3S,8S,9S,10R,13R,14S,17R)-10,13-dimethyl-17-((R)-6-methylheptan-2-yl)-2,3,4,7,8,9,10,11,12,13,14,15,16,17-tetradecahydro-1H-cyclopenta[a]phenanthren-3-yl 4-((3-aminobutyl)(4-((3-aminobutyl)amino)butyl)amino)-4-oxobutanoate trihydrochloride]	19694.4 ± 6954.5	98.1	99.7	77.4	0.15	75	0.11	18.2 ± 1.4
CC[C@H](CC[C@@H](C)[C@H]1CC[C@H]2[C@@H]3CC=C4C[C@@H](OC(=O)CCC(=O)N(CCCCNCCC(C)(C)N)CCC(C)(C)N)CC[C@]4(C)[C@H]3CC[C@]12C)C(C)C [SA161, (3S,8S,9S,10R,13R,14S,17R)-17-((2R,5R)-5-ethyl-6-methylheptan-2-yl)-10,13-dimethyl-2,3,4,7,8,9,10,11,12,13,14,15,16,17-tetradecahydro-1H-cyclopenta[a]phenanthren-3-yl 4-((3-amino-3-methylbutyl)(4-((3-amino-3-methylbutyl)amino)butyl)amino)-4-oxobutanoate trihydrochloride]	17839.3 ± 7760	99.6	99.6	74.2	0.15	77	0.16	14.1 ± 1.5
CC(C)CCC[C@@H](C)[C@H]1CC[C@H]2[C@@H]3CC=C4C[C@@H](OC(=O)CCC(=O)N(CCCCCCCC(C)N)CCC(C)N)CC[C@]4(C)[C@H]3CC[C@]12C (stereo partly drawn) [SA162, (3S,8S,9S,10R,13R,14S,17R)-10,13-dimethyl-17-((R)-6-methylheptan-2-yl)-2,3,4,7,8,9,10,11,12,13,14,15,16,17-tetradecahydro-1H-cyclopenta[a]phenanthren-3-yl 4-((3-aminobutyl)(8-aminononyl)amino)-4-oxobutanoate dihydrochloride]	34454.6 ± 3101.8	98.6	99.4	75.4	0.16	75	0.15	21.3 ± 0.6
